Data from patent publication US5541189A, “Substituted aliphatic amine-containing macrocyclic immunomodulators” (Abbott Laboratories, priority 1995, dated 1996).
pIC50: −log10 of the molar value.

Columns and labels:
[1] = test system: human mixed lymphocyte reaction (MLR); test: human mixed lymphocyte reaction (MLR) assay, immunosuppressant activity; type: cell-based; settings: in vitro
Method: The immunosuppressant activity of the compounds of the present invention was determined using the human mixed lymphocyte reaction (MLR) assay described by Kino, T. et al. in Transplantation Proceedings XIX(5):36-39, Suppl. 6 (1987), incorporated herein by reference.

P-glycoprotein = settings: known; increasing sensitivity of multidrug resistant (MDR) cells to chemotherapeutic agents; cited from earlier work

SMILES	pIC50 [1]	modulators of P-glycoprotein (P-glycoprotein)
CC[C@@H]1/C=C(\C)C[C@H](C)C[C@H](OC)[C@H]2O[C@@](O)(C(=O)C(=O)N3CCCC[C@H]3C(=O)O[C@H](/C(C)=C/[C@@H]3CC[C@H](NCCCN(C)C)[C@H](OC)C3)[C@H](C)[C@@H](O)CC1=O)[C@H](C)C[C@@H]2OC [Example 7]	> 6.00	–
CC[C@@H]1/C=C(\C)C[C@H](C)C[C@H](OC)[C@H]2O[C@@](O)(C(=O)C(=O)N3CCCC[C@H]3C(=O)O[C@H](/C(C)=C/[C@@H]3CC[C@H](NCCN(CC)CC)[C@H](OC)C3)[C@H](C)[C@@H](O)CC1=O)[C@H](C)C[C@@H]2OC [Example 13]	> 6.00	–
C=CC[C@@H]1/C=C(\C)C[C@H](C)C[C@H](OC)[C@H]2O[C@@](O)(C(=O)C(=O)N3CCCC[C@H]3C(=O)O[C@H](/C(C)=C/[C@@H]3CC[C@@H](O)[C@H](OC)C3)[C@H](C)[C@@H](O)CC1=O)[C@H](C)C[C@@H]2OC [FK-506]	–	effective modulators of P-glycoprotein

More lines, main results first:

pIC50 [1]	SMILES	modulators of P-glycoprotein (P-glycoprotein)
> 6.00	CC[C@@H]1/C=C(\C)C[C@H](C)C[C@H](OC)[C@H]2O[C@@](O)(C(=O)C(=O)N3CCCC[C@H]3C(=O)O[C@H](/C(C)=C/[C@@H]3CC[C@H](N(CC)CCN(CC)CC)[C@H](OC)C3)[C@H](C)[C@@H](O)CC1=O)[C@H](C)C[C@@H]2OC [Example 29]	–
> 6.00	CC[C@@H]1/C=C(\C)C[C@H](C)C[C@H](OC)[C@H]2O[C@@](O)(C(=O)C(=O)N3CCCC[C@H]3C(=O)O[C@H](/C(C)=C/[C@@H]3CC[C@@H](NCCCN(C)C)[C@H](OC)C3)[C@H](C)[C@@H](O)CC1=O)[C@H](C)C[C@@H]2OC [Example 47]	–
